From patent publication US10154988B2, “Methods and compositions for treating schizophrenia” (The Johns Hopkins University, priority 2012, dated 2018)
Entries after “also recorded” stand apart in the source; their conditions may differ.

How the values were obtained:
aMCI subjects = assay: neuropsychological tests outside the scanner (Buschke, Benton, Verbal Paired Associates); format: in vivo, human; settings: 125 mg twice a day for two weeks
Excerpt: All participants undergo neuropsychological evaluation at the time of assessment for treatment efficacy (Visits 1 and 2), as well as at the Baseline Visit. The evaluation occurs outside of the scanner and includes the Buschke Selective Reminding Test (Buschke and Fuld, 1974) and the Verbal Paired Associates subtest, the Logical Memory subtest, the Visual Reproduction subtest of the Wechsler Memory Scale-Revised (WMS-R) (Wechsler, 1997), and the Benton Visual Retention Test, as these tasks are particularly sensitive to medial temporal lobe function and early memory problems (Marquis et al., 2002 and Masur et al., 1994). Additionally, subjects are asked to complete tests of more general cognitive function such as tests to assess general mental status, executive function, attention and general naming ability. All neuropsychological tests are administered by a trained research assistant during a 60-minute session. As the three neuropsychological assessments in this study occur within a time period of 8 weeks, different versions of the neuropsychological tests are used to minimize test specific practice effects. Breaks are provided to the subject as needed.

somatostatin in DG hilus = assay: somatostatin immunohistochemistry, SOM-immunoreactive hilar neuron counts after 4-week levetiracetam; format: in vivo, rat; settings: 10 mg/kg/day, osmotic minipumps, four weeks; AI-LEV vs Y p=0.679, AI-LEV vs AI-VEH p<0.01
Protocol: Under isoflurane anesthesia, memory-impaired aged rats are implanted subcutaneously in the intrascapular region with osmotic mini-pumps (ALZET,
Durect Corporation, Cupertino, Calif.) with levetiracetam (10 mg/kg/day) or saline vehicle for four weeks prior to perfusion. Young rats, which served as controls, receive either saline vehicle in mini-pumps or no implantation.
At the end of the 4-week treatment period, rats are anesthetized with isoflurane and perfused transcardiacally with 0.1 M phosphate buffer saline, followed by 4% paraformaldehyde in phosphate buffer. Brains are removed and post-fixed in paraformaldehyde overnight. […]
Tissue is labeled with anti-SOM antiserum (Santa Cruz Biotechnology; cat. no. SC7819-P) using an established immunoperoxidase protocol and tissue sections are processed concurrently to minimize inter-replication variability (Haberman et al., 2009). […] The secondary antibody is detected with avidin-biotin complex (ABC Elite; Vector Laboratories Inc., Burlingame, Calif.) and the avidin-biotin complex is visualized with nickel-enhanced diaminobenzadine (Vector Laboratories Inc., Burlingame, Calif.). […]
Interneuron quantification is performed using a Zeiss Axioplan 2 microscope equipped with a motorized stage. […] Neuron counts are analyzed as the total number of hilar interneurons per hippocampal section for each rat.

CC[C@@H](C(N)=O)N1CCCC1=O [levetiracetam, (2S)-2-(2-oxopyrrolidin-1-yl) butanamide] was tested. Which “performance in Benton Visual Retention Test” value (aMCI subjects) did it give?
Its value is “fails to rescue performance”.

What about the “performance in Buschke Selective Reminding Test—Delayed Recall” value (aMCI subjects) of the same compound?
Its value is “fails to rescue performance”.

What about the “performance in Verbal Paired Associates Test—Delayed Recall” value (aMCI subjects) of the same compound?
Its value is “fails to rescue performance”.

And the “performance in Verbal Paired Associates Test—Recognition” value (aMCI subjects)?
Its value is “fails to rescue performance”.

And the “levels of somatostatin in DG hilus (SOM-immunoreactive hilar neurons)” value (somatostatin in DG hilus)?
The value was “restores the levels of somatostatin; also recorded: restores sematostatin in DG hilus”.
